Tests used:
[1] = Compound was evaluated for hydroxyl radical (OH) scavenging activity
[2] = Superoxide anion (O2-) scavenging activity
[3] = target: Xanthine dehydrogenase/oxidase (Homo sapiens, UniProt P47989); experiment: Compound was evaluated for inhibition of xanthine oxidase; design: concentration or dose not given beside the values
Sequence of Xanthine dehydrogenase/oxidase (P47989 whole entry): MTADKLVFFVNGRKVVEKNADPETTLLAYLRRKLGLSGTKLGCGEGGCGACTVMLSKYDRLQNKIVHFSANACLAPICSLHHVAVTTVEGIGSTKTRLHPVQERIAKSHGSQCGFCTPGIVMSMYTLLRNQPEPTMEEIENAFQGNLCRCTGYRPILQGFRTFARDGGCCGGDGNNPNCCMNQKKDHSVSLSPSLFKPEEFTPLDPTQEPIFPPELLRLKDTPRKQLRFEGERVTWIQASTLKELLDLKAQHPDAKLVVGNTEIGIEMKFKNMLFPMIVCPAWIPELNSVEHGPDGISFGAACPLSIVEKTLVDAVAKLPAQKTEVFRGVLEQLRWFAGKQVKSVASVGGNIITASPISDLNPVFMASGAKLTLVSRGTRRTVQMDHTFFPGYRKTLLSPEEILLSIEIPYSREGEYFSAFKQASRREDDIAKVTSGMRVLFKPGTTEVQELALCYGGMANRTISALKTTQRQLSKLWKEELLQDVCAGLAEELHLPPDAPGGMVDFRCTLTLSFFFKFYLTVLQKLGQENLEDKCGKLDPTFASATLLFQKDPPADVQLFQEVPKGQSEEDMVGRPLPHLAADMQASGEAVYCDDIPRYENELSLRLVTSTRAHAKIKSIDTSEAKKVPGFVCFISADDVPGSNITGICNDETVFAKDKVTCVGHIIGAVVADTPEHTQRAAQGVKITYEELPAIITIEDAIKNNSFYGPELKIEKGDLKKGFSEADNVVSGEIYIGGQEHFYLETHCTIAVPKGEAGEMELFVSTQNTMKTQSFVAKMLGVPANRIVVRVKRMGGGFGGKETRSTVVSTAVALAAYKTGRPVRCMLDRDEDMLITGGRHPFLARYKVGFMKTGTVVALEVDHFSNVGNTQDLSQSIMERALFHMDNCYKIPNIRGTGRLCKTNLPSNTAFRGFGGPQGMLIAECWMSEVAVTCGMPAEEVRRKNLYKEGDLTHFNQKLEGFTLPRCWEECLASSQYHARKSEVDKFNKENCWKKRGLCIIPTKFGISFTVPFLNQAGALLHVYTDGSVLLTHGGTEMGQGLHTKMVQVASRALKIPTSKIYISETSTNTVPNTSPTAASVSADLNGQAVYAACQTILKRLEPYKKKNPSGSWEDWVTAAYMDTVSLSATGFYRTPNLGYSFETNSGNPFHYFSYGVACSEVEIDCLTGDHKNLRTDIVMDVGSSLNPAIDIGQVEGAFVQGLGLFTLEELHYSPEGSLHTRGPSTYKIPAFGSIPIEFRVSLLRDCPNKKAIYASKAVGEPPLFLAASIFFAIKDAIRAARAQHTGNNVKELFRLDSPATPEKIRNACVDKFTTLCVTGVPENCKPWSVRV

Row | Compound | IC50 [1] | IC50 [2] | Inhibition [3]
1 | O=C(O)/C=C/c1ccc(O)c(O)c1[N+](=O)[O-] | 425 µM | 35 µM | 61%
2 | O=C(O)/C=C/c1ccc(O)c(O)c1 [CAFFEIC ACID] |  | 95 µM | 18%
3 | O=C(O)/C=C/c1cc(O)c(O)cc1[N+](=O)[O-] | 250 µM | 150 µM | 36%
4 | Oc1ccccc1O [CATECHOL] |  | 30 µM | 5%
5 | O=[N+]([O-])c1ccc(O)c(O)c1 [4-Nitrocatechol] | 130 µM | 250 µM | 9%
6 | O=[N+]([O-])c1cc(O)ccc1O | 85 µM | 1000 µM | 12%
7 | O=C(O)/C=C/c1cc(O)c(O)c([N+](=O)[O-])c1 | 400 µM | 185 µM | 70%
8 | O=[N+]([O-])c1cccc(O)c1O | 180 µM | 250 µM | 5%
9 | CC(=O)C(Cc1cc(O)c(O)c([N+](=O)[O-])c1)C(C)=O | 300 µM | 500 µM | 
